This note sets out measurements from patent EP0126849A1, “Pharmacologically active N-amino hydantoin derivatives, their synthesis and intermediates” (THE WELLCOME FOUNDATION LIMITED, priority 1983, dated 1984).

Converted amounts (≈) assume the structure as drawn. Where only a bound is given, the exact number is not on record here.

Usually IC50 stands for the point on the concentration scale where inhibition reaches its midpoint. For orientation: % inhibition means the share of the control response that was lost under treatment. Low values mean a weak effect, high ones a strong effect. What is called ED50 is the midpoint of the dose-response relation.

In one data set the test system is platelet aggregation. Kind of data set: Inhibition of platelet aggregation in human platelet-rich plasma (Born-type aggregometer, ADP or other aggregating agent). It is filed as cell-based. To be noted: for IC50: Homo sapiens, Platelet, 1 min, 1 min incubation at 37°C before aggregating agent, read-out: IC50; for IC50 / Potency relative to PGI2: human PRP; for Potency relative to PGI2: 1 min incubation, PGI2 = 1; for Increase on Incubation (min) 5: increase in potency after 5 min incubation in PRP; for Increase on Incubation (min) 10: increase in potency after 10 min incubation in PRP. The procedure:
Human blood was freshly collected into siliconized (Siloclad; Clay Adams) plastic (Sterilin Ltd.) vessels containing trisodium citrate (3.15%; 0.1 volume with 0.9 volume blood) and centrifuged (200 g for 15 min) at room temperature. The platelet-rich plasma (PRP) was withdrawn into plastic containers and kept at room temperature. Inhibition of […] prior to addition of sufficient adenosine diphosphate (ADP) or other aggregating agent to just cause a non-reversing control aggregation. Dose-inhibition curves were constructed for each compound and the ID50 (dose causing 50% inhibition) was calculated as the dose required to reduce the aggregation to 50% of its control amplitude. […] For comparison, also given are the results upon administration of 5-(6-carboxyhexyl)-1-(3-cyclohexyl-3-hydroxypropyl)hydantoin (Compound X) which is disclosed in UK Specification 1,595,694. -
In this and subsequent biological examples, where a compound number refers to a single diastereoisomer, a mixture of diastereoisomers is indicated by two compound numbers separated by /.

Data set [1] deals with systemic arterial blood pressure (BP). Kind of data set: Concurrent change in systemic arterial blood pressure in anaesthetized rabbits. It is filed as in vivo. The settings on record: for Δ BP: anaesthetized rabbit, i.v. infusion, at the ED50 dose; for blood pressure depressant activity: at the ED50 doses, rabbit, stated in words. As to the method: Male rabbits (2-2.5 kg body weight) were anaesthetized with sodium pentobarbitone (30 mg/kg, i.v. followed by maintenance doses of 3mg/kg) and systemic arterial blood pressure (BP) was recorded from a cannula filled with heparinized saline (5 units/ml) in a carotid artery; no heparin was administered to the animal. Hydantoins were administered via a cannula in a femoral vein. Blood samples (1.5 ml) were slowly collected into a plastic syringe containing tri-sodium citrate (3.18%, 0.15 ml) from a cannula inserted into a femoral artery, shaken gently and transferred to an Eppendorf plastic tube and spun in a modified Eppendorf centrifuge for 2 sec (Model 5412, maximum centrifugal force 10,000 x g). The PRP was collected and a 0.35 ml aliquot was transferred to the aggregometer and incubated at 37°C for 1 minute prior to addition of sufficient ADP (20 µM) to produce near-maximal aggregation. The time-interval between removal of blood samples and the transference of the PRP to the aggregometer was less than 1.5 min. […] After three control blood samples had been prepared and the control aggregation of the platelets measured, the hydantoin was infused intravenously for 15 min from a Braun slow-infusion apparatus. Blood samples were collected 10 min after the start of the infusion. Two further 10 min. samples post-infusion were collected prior to commencing further infusions. The following results list values of ED50 and change in blood pressure. For comparison, also given are the results obtained upon administration of PGIZ and Compound X.

Data set [2] relates to mean systemic arterial blood pressure (BP). Kind of data set: Cardiovascular actions in rats: fall in blood pressure and duration of the hypotensive effect. The format is in vivo, male Wistar rats. To be noted: for Fall in BP Relative Potency PGE1 / Fall in BP Relative Potency PGI2: anaesthetized rat, i.v. injection; for Fall in BP Relative Potency PGE1: potency ratio against PGE1; for Fall in BP Relative Potency PGI2: potency ratio against PGI2; for Duration t½: time from peak hypotensive response to recovery to half its peak, rat i.v. As to the method: Anaesthesia was induced in male Wistar rats (250-300 g body weight) with sodium pentobarbitone (30 mg kg^-1, i.v.) and supplemented (3 mg kg^-1) when required. Arterial pressure was recorded from a cannulated femoral artery and heart rate derived from the arterial pulse. Rectal temperature was maintained at 37°C by thermistor-controlled radiant heat. Each compound was injected into a femoral vein in a volume of 0.25 ml and flushed in with 0.2 ml of saline (0.9% w/v). Dose-response relationships for the fall in mean systemic arterial blood pressure (BP) with the hydantoins were constructed and compared to those obtained with PGI2 and PGE, in the same animal, and a potency ratio calculated. […] Figures for Compound X and PGI2 are listed for comparison.

For a further data set, the system named is B.P. Kind of data set: Cardiovascular studies in the dog: vasodepressor potency and duration. The settings on record: i.v. bolus. The format is in vivo, Dogs. The procedure: Dogs (10-15 kg body weight) were anaesthetized with chloralose (80 mg/kg i.v.) and maintained with subcutaneous injections of pentobarbitone (3 mg/kg). Drugs were administered via a femoral vein by bolus injection and B.P. was recorded from the right femoral artery. Results give vasodepressor potency and t1 2 duration. Figures for Compound X are provided for comparison.

For data set [3], the system named is acid-ethanol induced gastric lesions. Kind of data set: Inhibition of acid-ethanol induced gastric lesions in rats (cytoprotection). To be noted: rat, oral. It is filed as in vivo. The procedure: The inhibition of acid-ethanol induced gastric lesions in rats (cytoprotection) was measured for various doses of orally administered hydantoin. Figures for compound X are given for comparison.

Data set [4] deals with rabbit platelet aggregation. Kind of data set: Ex vivo rabbit platelet aggregation after i.v. infusion of the hydantoin (ADP 20 µM). The format is in vivo, rabbits. The settings on record: i.v. infusion for 15 min, blood sample 10 min after start of infusion. As to the method:
Male rabbits (2-2.5 kg body weight) were anaesthetized with sodium pentobarbitone (30 mg/kg, i.v. followed by maintenance doses of 3mg/kg) and systemic arterial blood pressure (BP) was recorded from a cannula filled with
heparinized saline (5 units/ml) in a carotid artery; no heparin was administered to the animal. Hydantoins were administered via a cannula in a femoral vein. Blood samples (1.5 ml) were slowly collected into a plastic syringe containing tri-sodium citrate (3.18%, 0.15 ml) from a cannula inserted into a femoral artery, shaken gently and transferred to an Eppendorf plastic tube and spun in a modified Eppendorf centrifuge for 2 sec (Model 5412, maximum centrifugal force 10,000 x g). The PRP was collected and a 0.35 ml aliquot was transferred to the aggregometer and incubated at 37°C for 1 minute prior to addition of sufficient ADP (20 µM) to produce near-maximal aggregation. The time-interval between removal of blood samples and the transference of the PRP to the aggregometer was less than 1.5 min.
Blood samples were removed at 10 min. intervals once the BP of the rabbit had reached steady resting levels, 10-20 min. following the preparative surgical procedures. After three control blood samples had been prepared and the control aggregation of the platelets measured, the hydantoin was infused intravenously for 15 min from a Braun slow-infusion apparatus. Blood samples were collected 10 min after the start of the infusion. Two further 10 min. samples post-infusion were collected prior to commencing further infusions.
The following results list values of ED50 and change in blood pressure. For comparison, also given are the results obtained upon administration of PGIZ and Compound X.

The mark [5] stands for this setting: Dose 1.25 ug kg^-1, duration of vasodepressor effect.

For the molecule `O=C(O)CCCCCCC1C(=O)NC(=O)N1N=CC(O)C1CCCCC1` (single isomer, unassigned) [Compound No. 6, 5-(6-carboxyhe-xyl)-1-(2-cyclohexyl-2-hydroxyethylideneamino)hydantoin], in the data set with platelet aggregation, the IC50 came to 2 ng/mL (≈ 5.44 nM), the “Potency relative to PGI2” value was 0.30, the “Increase on Incubation (min) 5” value was “x5” and the “Increase on Incubation (min) 10” value is reported as “x20”. Further, in data set [1], the Δ BP stood at 0 mmHg and the “blood pressure depressant activity” value was “no significant blood pressure depressant activity”. Besides, in data set [2], the “Fall in BP Relative Potency PGE1” value is 0.5, the “Fall in BP Relative Potency PGI2” value was determined as 0.041 and the “Duration t½” value was 17.0 min. The “Δ BP” value with B.P. (Dose 0.625 ug kg^-1) is given as -54 mm Hg. For the same molecule, in the data set on B.P. (Dose 0.625 ug kg^-1, duration of vasodepressor effect), the t1/2 is recorded as 60 min. The “Δ BP” value in the data set on B.P. (Dose 1.25 ug kg^-1) is on record as -65 mm Hg. For the same molecule, in the data set on B.P. (setting [5]), the t1/2 is more than 60 min. For the same molecule, the “% inhibition” value in data set [3] (Dose 10 μg kg^-1) turned out to be 31 ± 20%. Also, the “% inhibition” value in data set [3] (Dose 25 μg kg^-1) was determined as 50 ± 21%. Further, the “% inhibition” value in data set [3] (Dose 50 μg kg^-1) amounted to 69 ± 8%. Further, the ED50 in data set [4] was determined as 0.15 µg/kg/min.

As for `O=C(O)CCCCCCC1C(=O)NC(=O)N1N=CC(O)C1CCCCC1` (centres unmarked) [Compound No. 3, 5-(6-carboxyhexyl)-1-(2-cyclohexyl-2-hydroxy-ethylideneamino)hydantoin], in the data set on platelet aggregation, the half-maximal inhibitory concentration (IC50) came to 16 ng/mL (≈ 43.5 nM), the “Potency relative to PGI2” value was determined as 0.02, the “Increase on Incubation (min) 5” value is on record as “x7” and the “Increase on Incubation (min) 10” value was “x20”. Besides, in data set [1], the Δ BP was 0 mmHg and the “blood pressure depressant activity” value is on record as “no significant blood pressure depressant activity”. Moreover, in data set [2], the “Fall in BP Relative Potency PGE1” value is reported as 0.324, the “Fall in BP Relative Potency PGI2” value was determined as 0.027 and the “Duration t½” value was 11.0 min. In data set [4], this molecule yielded an ED50 of 2.0 µg/kg/min.

Regarding `O=C(O)CCCCCCC1C(=O)NC(=O)N1CCC(O)C1CCCCC1` (centres unmarked) [Compound X, 5-(6-carboxyhexyl)-1-(3-cyclohexyl-3-hydroxypropyl)hydantoin, reference compound], in the data set on platelet aggregation, the IC50 amounted to 1.5 ng/mL (≈ 4.07 nM), the “Potency relative to PGI2” value came to 0.21, the “Increase on Incubation (min) 5” value is listed as “x2” and the “Increase on Incubation (min) 10” value is “x3”. The same molecule registered a Δ BP in data set [1] of -5 mmHg. In data set [2], the “Fall in BP Relative Potency PGE1” value is 0.72, the “Fall in BP Relative Potency PGI2” value is recorded as 0.06 and the “Duration t½” value was determined as 4.0 min. The “Δ BP” value with B.P. (Dose 1.25 ug kg^-1) was -45 mm Hg. This molecule also displayed a t1/2 in the data set on B.P. (setting [5]) of 2.8 min. Also, the “Δ BP” value with B.P. (Dose 2.5 ug kg^-1) is -56 mm Hg. In the data set on B.P. (Dose 2.5 ug kg^-1, duration of vasodepressor effect), this molecule gave a t1/2 of 6.2 min. The “% inhibition” value in data set [3] (Dose 5 μg kg^-1) came out at 46 ± 26%. The “% inhibition” value in data set [3] (Dose 10 μg kg^-1) came out at 80 ± 9%. Besides, the “% inhibition” value in data set [3] (Dose 25 μg kg^-1) amounted to 89 ± 6%. This molecule showed an ED50 in data set [4] of 3.3 µg/kg/min.

Take `CCCCC[C@H](O)/C=C/[C@@H]1[C@H]2C/C(=C/CCCC(=O)O)O[C@H]2C[C@H]1O` [PGI2, reference compound]: the Δ BP in data set [1] is recorded as -20 mmHg. Besides, in data set [2], the “Fall in BP Relative Potency PGE1” value stood at 11.0 and the “Duration t½” value was 0.3 min. The molecule further returned an ED50 in data set [4] of 0.2 µg/kg/min.
